From patent US10463664B2, “Inhibitors of HSV nucleotidyl transferases and uses therefor” (Saint Louis University, priority 2013, dated 2019)

Experiments:
HSV-1 = assay: Anti-HSV-1 replication assay in Vero cells, titer by plaque assay; format: cell-based, herpes simplex virus 1; conditions: for Anti-HSV-1 Log10 suppression 5 μM / Anti-HSV-1 Log10 suppression 50 μM: moi 0.1, 24 h, relative to DMSO; for Inhibition of HSV-1 replication (in words): primary screening; for Anti-HSV-1 Log10 suppression 5 μM (screening symbol) / Anti-HSV-1 Log10 suppression 50 μM (screening symbol): visual inspection
Experimental: (§1) Anti-HSV-1 and -HSV-2 Replication Assay. Compounds to be screened were diluted in PBS supplemented to contain 2% newborn calf serum and 1% glutamine, and added in 100 μL, volume to confluent cell monolayers in 24-well cluster plates. Immediately thereafter HSV-1 and HSV-2, diluted in the supplemented PBS medium, were added to the wells in 50 μl volume such that the final concentration of compound was 50 μM and 5 μM and the multiplicity of infection was 0.1. The plates were incubated at 37° C. for 1 hour and then virus-containing inoculum was removed and the wells were washed once in PBS. Compounds, diluted to 50 μM and 5 μM in DMEM supplemented to contain 2% newborn calf serum and 1% each penicillin/streptomycin, were added at 0.5 mL/well. Plates were incubated at 37° C. an additional 23 hr, and then the plates were visually inspected through a phase contrast microscope for cytopathic effect, and for toxic effect. […] The entire contents of each well were collected by scraping. Samples were frozen at −80° C., and then subsequently thawed, sonicated, and infectious virus titer was determined by standard plaque assay on Vero cell monolayers. Because the compounds were dissolved at 10 mM in 100% DMSO, equivalent dilutions of DMSO were added to additional wells as a control for effects of the diluent. Each experiment was repeated once. EC50 values were determined as above except that serial dilutions of the compound to be tested were prepared starting at 50 μM. The inhibitory values were calculated by non-linear curve-fitting in GraphPad Prism.
(§2) Monolayers were microscopically inspected 24 hours post-infection and wells in which more cells were visually healthier than the DMSO-treated controls were collected. Viral titers in the culture lysates were then determined by standard plaque assay on Vero cells. Inhibition of viral replication was categorized as <1 log10 relative to the DMSO-treated control, 1 to 3 log10 suppression, or ≥3 log10 suppression. […] Additionally, four polyoxygenated heterocycle compounds were tested (#128, 138, 139, 140).

HSV-2 = assay: Anti-HSV-2 replication assay in Vero cells, titer by plaque assay; format: cell-based, herpes simplex virus 2; conditions: for Anti-HSV-2 Log10 suppression 5 μM / Anti-HSV-2 Log10 suppression 50 μM: moi 0.1, 24 h, relative to DMSO; for Inhibition of HSV-2 replication (in words): primary screening; for Anti-HSV-2 Log10 suppression 5 μM (screening symbol) / Anti-HSV-2 Log10 suppression 50 μM (screening symbol): visual inspection
Experimental: as §1, §2

human RNaseH1 = molecular target: T1, human RNaseH1 (Homo sapiens, UniProt O60930); assay: Biochemical inhibition of human RNaseH1 (oligonucleotide-directed RNA cleavage assay); conditions: compounds at 60, 20 or 10 μM
T1 construct: hexahistidine; made in house; host or cells: E. coli
T1 sequence (O60930 1-286): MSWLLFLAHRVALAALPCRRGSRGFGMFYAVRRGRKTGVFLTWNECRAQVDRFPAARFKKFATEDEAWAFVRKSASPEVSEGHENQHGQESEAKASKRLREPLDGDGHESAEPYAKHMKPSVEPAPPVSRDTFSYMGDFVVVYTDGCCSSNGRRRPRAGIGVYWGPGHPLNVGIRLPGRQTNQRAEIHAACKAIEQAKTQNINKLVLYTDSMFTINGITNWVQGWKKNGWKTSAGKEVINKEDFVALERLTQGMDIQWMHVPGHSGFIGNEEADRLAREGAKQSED
Experimental: (§3) Biochemical inhibition of HBV RNaseH and human RNaseH1 activity. […] RNaseH activity was measured using an oligonucleotide-directed RNA cleavage assay in which a DNA oligonucleotide is annealed to an internally ^32P-labeled RNA, the RNA:DNA heteroduplex is incubated with the enzyme to permit cleavage, and then the RNA cleavage products are resolved by electrophoresis and detected by autoradiography. The compounds were included in the reaction mixes at 60, 20, or 10 μM and the amount of the RNA cleavage products in the compound-containing reactions was compared to reactions in which an equivalent concentration of DMSO was added as a vehicle control. The data were quantified using ImageJ.

HBV RNaseH = molecular target: T2, HBV RNaseH (Hepatitis B virus genotype A2 subtype adw2, UniProt P03159); assay: Biochemical inhibition of HBV RNaseH (oligonucleotide-directed RNA cleavage assay); conditions: compounds at 60, 20 or 10 μM
T2 construct: One of the inventors recently produced active recombinant HBV RNase H; hexahistidine; made in house; host or cells: E. coli
T2 sequence (P03159 693-845): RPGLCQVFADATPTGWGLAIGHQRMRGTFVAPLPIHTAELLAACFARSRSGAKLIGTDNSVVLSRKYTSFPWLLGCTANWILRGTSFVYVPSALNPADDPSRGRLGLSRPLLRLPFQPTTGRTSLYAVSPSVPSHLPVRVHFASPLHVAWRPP
Experimental: as §3

Compound | Inhibition of HSV-1 replication (in words) (HSV-1) | Inhibition of HSV-2 replication (in words) (HSV-2) | Anti-HBV RNaseH (HBV RNaseH) | Anti-HSV-1 Log10 suppression 5 μM (screening symbol) (HSV-1) | Anti-HSV-1 Log10 suppression 50 μM (screening symbol) (HSV-1) | Anti-HSV-2 Log10 suppression 5 μM (screening symbol) (HSV-2) | Anti-HSV-2 Log10 suppression 50 μM (screening symbol) (HSV-2) | further results
Nc1ccn(C[C@@H](CO)OCP(=O)(O)O)c(=O)n1 [CID, Cidofovir, reference compound] | negligible | negligible |  |  |  |  |  | Anti-HSV-1 Log10 suppression 5 μM (HSV-1): 0.77 log10; Anti-HSV-1 Log10 suppression 50 μM (HSV-1): 2.67 log10; Anti-HSV-2 Log10 suppression 5 μM (HSV-2): 0.38 log10; Anti-HSV-2 Log10 suppression 50 μM (HSV-2): 1.19 log10; Anti-Human RNaseH1 (human RNaseH1): − (no inhibition at 60 μM)
NC(=O)c1c(N)sc2c1CCCCC2 [Compound 3] |  |  | − (no inhibition at 60 μM) |  |  |  |  | Anti-HSV-1 Log10 suppression 5 μM (HSV-1): 0.19 log10; Anti-HSV-1 Log10 suppression 50 μM (HSV-1): −0.03 log10; Anti-HSV-2 Log10 suppression 5 μM (HSV-2): 0.06 log10; Anti-HSV-2 Log10 suppression 50 μM (HSV-2): 0.39 log10
COC(=O)Oc1nsnc1N1CCOCC1 [Compound 4] |  |  | + (inhibition at 60 μM) | − | − | − | − | 
Cc1cc(C)c(C#N)c(=N)o1 [Compound 5] |  |  | + (inhibition at 60 μM) | − | − | − | − | 
CCOC(=O)c1sc(NC(=O)CSc2nnc(Cc3ccccc3)o2)c(C#N)c1C [Compound 6] |  |  | + (inhibition at 60 μM) | − | − | − | − | 
O=c1c(O)c(-c2ccc(O)c(O)c2)oc2cc(O)c(O)c(O)c12 [Compound 7] |  |  | − (no inhibition at 60 μM) |  |  |  |  | Anti-HSV-1 Log10 suppression 5 μM (HSV-1): 0.44 log10; Anti-HSV-1 Log10 suppression 50 μM (HSV-1): 0.48 log10; Anti-HSV-2 Log10 suppression 5 μM (HSV-2): 0.03 log10; Anti-HSV-2 Log10 suppression 50 μM (HSV-2): 1.26 log10; Anti-Human RNaseH1 (human RNaseH1): +++ (inhibition at 10 μM)
Cc1c2cc(O)c(=O)cc-2oc2cc(O)c(O)cc12 [Compound 8] |  |  | ++ (inhibition at 20 μM) |  |  |  |  | Anti-HSV-1 Log10 suppression 5 μM (HSV-1): −0.18 log10; Anti-HSV-1 Log10 suppression 50 μM (HSV-1): 0.86 log10; Anti-HSV-2 Log10 suppression 5 μM (HSV-2): 0.18 log10; Anti-HSV-2 Log10 suppression 50 μM (HSV-2): 2.49 log10; Anti-Human RNaseH1 (human RNaseH1): +++ (inhibition at 10 μM)
O=c1c(O)c(-c2cc(O)c(O)c(O)c2)oc2cc(O)cc(O)c12 [Compound 9] |  |  | ++ (inhibition at 20 μM) |  |  |  |  | Anti-HSV-1 Log10 suppression 5 μM (HSV-1): 0.30 log10; Anti-HSV-1 Log10 suppression 50 μM (HSV-1): 0.38 log10; Anti-HSV-2 Log10 suppression 5 μM (HSV-2): −0.04 log10; Anti-HSV-2 Log10 suppression 50 μM (HSV-2): 0.67 log10; Anti-Human RNaseH1 (human RNaseH1): ++ (inhibition at 20 μM)
Cc1cc(C(F)(F)F)c(C#N)c(=O)[nH]1 [Compound 19] |  |  | − (no inhibition at 60 μM) | − | − | − | − | 
N#Cc1cc2ccccc2oc1=N [Compound 21] |  |  | − (no inhibition at 60 μM) | − | − | − | − | 
NC(=O)c1c(N)sc2c1CCCCC2 [Compound 22] |  |  |  | − | − | − | − | 
CCOC(=O)c1sc(NC(=O)CSc2nnc(-c3ccc(Cl)cc3)o2)c(C#N)c1C [Compound 24] |  |  | − (no inhibition at 60 μM) | − | − | − | − | 
Cc1sc2nc(-c3ccc([N+](=O)[O-])cc3)[nH]c(=O)c2c1C [Compound 38] |  |  | +++ (inhibition at 10 μM) |  |  |  |  | Anti-HSV-1 Log10 suppression 5 μM (HSV-1): −0.07 log10; Anti-HSV-1 Log10 suppression 50 μM (HSV-1): 0.07 log10; Anti-HSV-2 Log10 suppression 5 μM (HSV-2): 0.11 log10; Anti-HSV-2 Log10 suppression 50 μM (HSV-2): −0.05 log10
[N-]=[N+]=NCc1cccc(C(=O)CC(=O)C(=O)O)c1 [Compound 40] | negligible inhibition | negligible inhibition |  |  |  |  |  | 
O=C(Oc1cccccc1=O)c1ccc(Cl)cc1 [Compound 63] | negligible inhibition | negligible inhibition |  |  |  |  |  | 
O=C(O)c1cn(C2CC2)c2cc(Cl)c(F)cc2c1=O [Compound 66] |  |  | − (no inhibition at 60 μM) | − | + | − | − | 
CCn1cc(C(=O)O)c(=O)c2ccc(C)nc21 [Compound 70] |  |  | − (no inhibition at 60 μM) | − | − | − | − | 
Cn1c(N2CCCCS2(=O)=O)nc(C(=O)NCc2ccc(F)cc2)c(O)c1=O [Compound 72] | negligible inhibition | negligible inhibition |  |  |  |  |  | 
C[C@@H]1CCO[C@H]2Cn3cc(C(=O)NCc4ccc(F)cc4F)c(=O)c(O)c3C(=O)N12 [Compound 73, Dolutegravir, reference compound] | negligible inhibition | negligible inhibition |  |  |  |  |  | 
Cn1c(C(C)(C)NC(=O)c2ccccc2)nc(C(=O)NCc2ccc(F)cc2)c(O)c1=O [Compound 121] | negligible inhibition | negligible inhibition |  |  |  |  |  | 
O=C1c2ccc3ccccc3c2C(=O)N1[O-].[Na+] [Compound 128] | None of these compounds was particularly efficacious | None of these compounds was particularly efficacious |  |  |  |  |  | 
O=C(O)C(=O)CC(=O)c1ccccc1 [Compound 131] | negligible inhibition | negligible inhibition |  |  |  |  |  | 
O=C1C(=O)C(c2ccc(O)c(O)c2)Oc2cc(O)cc(O)c21 (stereo not drawn) [Compound 134] | negligible inhibition | negligible inhibition |  |  |  |  |  | 
O=C1C(=O)C(c2cc(O)c(O)c(O)c2)Oc2cc(O)ccc21 (stereo not drawn) [Compound 135] | negligible inhibition | negligible inhibition |  |  |  |  |  | 
Cc1sc2nc(-c3ccccc3)nc(O)c2c1C [Compound 136] | negligible inhibition | negligible inhibition |  |  |  |  |  | 
O=C1c2ccccc2C(=O)N1O [Compound 138] | None of these compounds was particularly efficacious | None of these compounds was particularly efficacious |  |  |  |  |  | 
O=C1CCC(=O)N1O [Compound 139] | None of these compounds was particularly efficacious | None of these compounds was particularly efficacious |  |  |  |  |  | 
CC1=C(C#N)C(=O)NC(=O)C1=Cc1ccc(-c2ccccc2)o1 [Compound 140] | None of these compounds was particularly efficacious | None of these compounds was particularly efficacious |  |  |  |  |  | 
